Converted amounts (≈) assume the structure as drawn.
Columns and labels:
[1] = tested on: rabbit washed platelet suspension; assay: Platelet aggregation inhibitory effect (collagen-induced, washed platelets); assay type: cell-based; settings: collagen as aggregation inducing agent, by interpolation
Protocol: For the extracts and purified materials prepared in Production Examples 1 to 5 (hereinafter, may be referred to as “sample”), inhibitory effect on platelet aggregation was tested as follows.
First, rabbit blood, which was collected with the addition of 1/10 amount of 77 mmol/L EDTA (pH 7.4), was centrifuged (180×g, 10 minutes, room temperature) to obtain platelet suspension. Next, the platelet suspension was centrifuged (810×g, 10 minutes, 4° C.), and the supernatant was removed to obtain platelet. This was suspended in platelet washing solution (0.15 mol/L sodium chloride: 0.15 mol/L Tris-HCL buffer (pH 7.4): 77 mmol/L EDTA (pH7.4)=90:8:2), centrifuged in the same way as mentioned above. […]
Next, to 222 μL of the prepared washed platelet suspension, 1 μL of 200 mmol/L calcium chloride solution was added and allowed to react at 37° C. for 1 minute. […] Separately, rate of platelet aggregation, B, was determined in a similar operation to that mentioned above except that the solvent of sample solution was added instead of the sample solution. % Inhibition of platelet aggregation=[(B−A)/B]×100 <Formula 3> […]
Next, the sample concentration was reduced in a stepwise manner, and the above-mentioned percentage inhibition of platelet aggregation was measured. The sample concentration, at which 50% of platelet aggregation is inhibited, was determined by interpolation. […]

[2] = target: T1, hyaluronidase (Type IV-S, from bovine testis) (Bos taurus, UniProt Q2YDK3); assay: Hyaluronidase activity inhibition assay; assay type: biochemical; settings: pH 3.5, 37° C., by interpolation
T1 construct: hyaluronidase solution (Type IV-S (from bovine testis))
T1 sequence (Q2YDK3 1-553): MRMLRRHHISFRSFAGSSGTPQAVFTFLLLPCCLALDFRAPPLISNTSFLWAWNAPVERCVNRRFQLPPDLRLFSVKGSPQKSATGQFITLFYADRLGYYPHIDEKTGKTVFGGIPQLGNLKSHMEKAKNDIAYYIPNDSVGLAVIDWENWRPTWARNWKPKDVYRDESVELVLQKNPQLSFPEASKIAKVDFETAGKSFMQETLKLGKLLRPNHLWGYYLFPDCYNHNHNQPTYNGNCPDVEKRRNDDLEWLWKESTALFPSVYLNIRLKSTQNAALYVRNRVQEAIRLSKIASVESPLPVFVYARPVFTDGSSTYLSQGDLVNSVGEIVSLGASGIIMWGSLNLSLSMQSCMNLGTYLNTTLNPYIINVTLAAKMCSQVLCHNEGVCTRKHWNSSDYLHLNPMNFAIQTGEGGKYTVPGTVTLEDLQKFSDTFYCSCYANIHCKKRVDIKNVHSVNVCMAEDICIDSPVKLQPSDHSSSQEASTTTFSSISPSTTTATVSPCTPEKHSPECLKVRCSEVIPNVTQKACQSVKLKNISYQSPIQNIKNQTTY
Protocol: For the extracts and purified materials prepared in Production Examples 1 to 5 (hereinafter, may be referred to as “sample”), inhibitory effect on hyaluronidase activity was tested as follows.
First, 0.1 mL of hyaluronidase solution (Type IV-S (from bovine testis; SIGMA 400 NF units/mL) was added to 0.1 mol/L acetic acid buffer (pH 3.5) in which each sample was dissolved, and allowed to react at 37° C. for 20 minutes.
Next, 0.2 mL of 2.5 mmol/L calcium chloride was added as an activating agent and allowed to react at 37° C. for 20 minutes. To this solution, 0.5 mL of 0.4 mg/mL potassium hyaluronate solution (from rooster comb) was added and allowed to react at 37° C. for 40 minutes. […] After that, absorbance at the wavelength of 585 nm was determined.
Next, similar operations and absorbance determination were performed without addition of enzyme. Further, as a control, using distillated water instead of sample solution, similar operations and absorbance determination were performed.
From the results of the measurements mentioned above, the percentage inhibition of hyaluronidase activity was calculated according to the following formula 1: % Inhibition of hyaluronidase activity=[1−(St−Sb)/(Ct−Cb)]×100 <Formula 1> […]
Next, the sample concentration was reduced in a stepwise manner, and the above-mentioned percentage inhibition of hyaluronidase activity was measured. […]

[3] = tested on: rat basophilic leukemia cells (RBL-2H3); assay: Assay of inhibitory effect on hexosaminidase release (indicator of histamine release); assay type: cell-based; settings: RBL-2H3, DNP-specific IgE / DNP-BSA stimulation; by interpolation
Protocol: For the extracts and purified materials prepared in Production Examples 1 to 5 (hereinafter, may be referred to as “sample”), inhibitory effect on hexosaminidase release was tested as follows. Since hexosaminidase is also released simultaneously upon release of to histamine inside a cell, the inhibitory effect on histamine release can be evaluated using hexosaminidase release as an indicator of histamine release.
First, rat basophilic leukemia cells (RBL-2H3) were cultured using a medium (S-MEM medium with 15% FBS; hereinafter the same) placed in 25 mL culture flasks, and then cells were collected by trypsin treatment. […]
Then, release was stopped by leaving the 96 well plate at rest on ice. […] After completion of the reaction, 250 μL of 0.1 mol/L Na2CO3/NaHCO3 was added to each well, and the absorbance at the wavelength of 415 nm was determined.
Next, as a blank test, the absorbance of a mixture of 10 μl it of cell supernatant and 250 μL of 0.1 mol/L Na2CO3/NaHCO3 at the wavelength of 415 nm was determined and was used for correction.
From the results of the measurements mentioned above, the percentage inhibition of hexosaminidase release was determined according to the following formula 2: % Inhibition of hexosaminidase release=[1−(B−C)/A]×100 <Formula 2> […]

IC50 ([1]; Oryctolagus cuniculus, Platelet, read-out: Sample concentration for 50% inhibition of platelet aggregation) | IC50 ([2]; read-out: Sample concentration for 50% inhibition of hyaluronidase activity (converted)) | Sample concentration for 50% inhibition of hyaluronidase activity [2] | SMILES | Sample concentration for 50% inhibition of hexosaminidase release [3] | Sample concentration for 50% inhibition of platelet aggregation [1]
400 µg/mL (≈ 1230 µM) | 56.4 µM | – | CC1(C)C=Cc2c(ccc3c2OC[C@@H](c2ccc(O)cc2O)C3)O1 [Glabridin of Production Example 4, glabridin] | – | –
– | – | 17.2 µg/mL | C=CC(C)(C)c1cc(/C=C/C(=O)c2ccc(O)cc2)c(OC)cc1O [Licochalcone A of Production Example 5, licochalcone A] | 23.5 µg/mL | 79.7 µg/mL
